Measurements from patent publication US7132252B2, “Methods for detecting the interaction of compounds with cytochrome P450 using optical molecular sensors” (Invitrogen Corporation, priority 1998, dated 2006).

How the values were obtained:
CYP3A4 [1] = biological target: T1, CYP3A4 (Homo sapiens, UniProt P08684); experiment: Rate of hydroxylation of BOM-09B by CYP 3A4; assay type: biochemical
Protocol: The racemic compound mixture (designated BOM-09B) was tested for activity with cytochrome P450 isozymes. […] The CYP 3A4 assay was performed in a 96-well plate at 37° C. in a volume of 100 μL/well. BOM-09B was diluted from a stock solution of 1 mM in acetonitrile to a 4×concentration of 80 μM in 100 mM K+ phosphate buffer of which 25 μl was added to the appropriate wells. […] The cytochrome P450 isozyme CYP3A4 was diluted to give a 2 pmol enzyme per well. Enzymic conversion of the substrate to products was allowed to proceed for 1 hour with fluorescence reads taken every 4 minutes on a fluorescence microtiter plate reader. The solution was illuminated with an 395/25 nm excitation filter and fluorescence emission was detected through a 460/40 nm the emission filter.

CYP2D6 = CYP2D6 (Homo sapiens, UniProt P10635); experiment: Apparent inhibition constants of drugs for CYP 2D6 with MOBFC as sensor
Protocol: CYP 2D6 was incubated with 10 μM concentrations of various known inhibitors and drug substrates and residual CYP 2D6 activity assayed with the fluorogenic substrate MOBFC. The assay was performed in a 96-well plate at room temp and at a volume of 100 μl/well. 4×enzyme buffer was prepared and 25 μl was added to each well on the plate, for final assay concentrations of 3.3 mM glucose-6-phosphate, 0.4 units/ml glucose-6-phosphate dehydrogenase and 10 mM MgCl2 in 100 mM K+ phosphate, pH 8.0. […] Six consecutive 1:3 dilutions were made and 50 μl of each was added to appropriate wells on the assay plate. The CYP2D6 was diluted to a solution of 2 pmol/10 μl in 100 mM K+ phosphate and 10 μl was added to each well. 20 μl of buffer was added to each well containing standard. The drug inhibitors were allowed to pre-incubated with the CYP 2D6 enzyme for 1 hr prior to the addition of the MOBFC substrate. […] Hydroxy-trifluoro-methylcoumarin was diluted to 100 μM in K+ phosphate buffer, and seven consecutive 1:2 dilutions were made. […] After addition of 10 μl of 13 mM NADP+ solutions to all wells the assay plate was placed into the fluorescence microtiter plate reader and fluorescence measured at 3 minute intervals for 60 minutes.

CYP3A4 [2] = biological target: T1, CYP3A4; experiment: Kinetic properties of fluorescein-based fluorogenic substrates with CYP 3A4; assay type: biochemical
Protocol: (§1) Dibenzylfluorescein (DBF) was purchased form Gentest, Woburn, Mass. […] DBF, BOMF and DBOMF were diluted from a stock solution of 2 mM in acetonitrile to a 4×concentration of 80 μM in 100 mM K+ phosphate buffer. Seven 1:2 dilutions were made of each substrate of which 25 μl was added to the appropriate wells. […] The cytochrome P450 isozyme CYP3A4 was diluted to give a 0.5 pmol enzyme per well and added in a volume of 10 μl/well in K+ phosphate, pH 8.0. Enzymatic conversion of the substrate to products was allowed to proceed for 1 hour with fluorescence reads taken every four minutes on a fluorescence microtiter plate reader. The solution was illuminated using an 485/20 nm excitation filter and fluorescence emission was detected through a 530/25 nm the emission filter.

CYP2C9 = CYP2C9 (Homo sapiens, UniProt P11712); experiment: Kinetic properties of substrate BOMF with CYP 2C9 (Tris-HCl buffer); assay type: biochemical
CYP3A4 [3] = biological target: T1, CYP3A4; experiment: Kinetic properties of fluorogenic substrates with CYP 3A4; assay type: biochemical
Text: For further understanding these terms in the context of this invention, attention is directed to FIG. 4 and the analysis of FIG. 4.
(respectively, MFC and MR).

CYP 2B6 = biological target: T2, CYP 2B6 (Homo sapiens, UniProt P20813); experiment: Kinetic properties of fluorogenic substrates with CYP 2B6; assay type: biochemical
T2 sequence (P20813 1-491): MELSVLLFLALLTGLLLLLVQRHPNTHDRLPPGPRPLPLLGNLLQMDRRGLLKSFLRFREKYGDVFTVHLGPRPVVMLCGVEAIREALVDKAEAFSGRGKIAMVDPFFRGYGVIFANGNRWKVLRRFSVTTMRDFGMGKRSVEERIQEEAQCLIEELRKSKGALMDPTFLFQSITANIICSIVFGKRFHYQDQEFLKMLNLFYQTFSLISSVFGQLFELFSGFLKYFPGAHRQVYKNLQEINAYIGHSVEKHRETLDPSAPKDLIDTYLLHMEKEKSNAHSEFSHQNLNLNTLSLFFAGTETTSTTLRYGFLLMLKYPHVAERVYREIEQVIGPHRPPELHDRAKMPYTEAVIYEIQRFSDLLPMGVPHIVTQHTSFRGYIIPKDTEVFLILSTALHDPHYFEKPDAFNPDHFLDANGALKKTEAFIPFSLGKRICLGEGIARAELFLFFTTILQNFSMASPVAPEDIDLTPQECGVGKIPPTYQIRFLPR

CYP3A4 [4] = biological target: T1, CYP3A4; experiment: Kinetics of BOMR and BR toward CYP 3A4 (FIG. 4); assay type: biochemical; conditions: from FIG. 4 data
Text: Whichever of the four abstractable hydrogen atoms (designated H^1 and H^2 in this representation of BOMR) is removed in the initial reaction step, with reference to Reaction Scheme 1 of FIG. 1, the hydroxylation product will spontaneously decompose to the free resorufin dye. In addition, the benzyloxy group, attached to the carbon carrying the two hydrogens designated H^2, contributes an inductive electronic effect on that carbon, which can stabilize the radical formed during abstraction of one of the H^2 hydrogens by a cytochrome P450.
Optimization of assay conditions was, and is preferably, accomplished through statistically validated Design of Experiments methodologies, using the commercial software package “Design-Expert®” produced by Stat-Ease® Inc. The data shown in FIGS. 4 and 5 were obtained with initial optimization.

CYP3A4 [5] = biological target: T1, CYP3A4
CYP3A4 [6] = biological target: T1, CYP3A4; experiment: in vitro; conditions: pH 8, % inhibition; for inhibition at 20 min, 10 µM: Condition A; for inhibition at 40 min, 10 µM: Condition B
[7] = substrate: O=C(OCOCc1ccccc1)c1ccccc1-c1c2ccc(=O)cc-2oc2cc(OCOCc3ccccc3)ccc12; experiment: Kinetic properties of fluorescein-based fluorogenic substrates with CYP 2C8; assay type: biochemical, human; conditions: other: 100 mM K+ phosphate buffer, pH 7.5
Protocol: as §1
(§2) In deviation from the protocol described in Example 32, the phosphate-based buffer (100 mM K+ phosphate, pH 8.0) was replaced throughout the procedure by 100 mM K+ phosphate buffer, pH 7.5. […] Specifically, the substrate dibenzylfluorescein (DBF) (purchased form Gentest, Woburn, Mass.) and the sensor of the present invention DBOMF were tested for activity with CYP 2C8.

[8] = substrate: O=C(OCc1ccccc1)c1ccccc1-c1c2ccc(=O)cc-2oc2cc(OCc3ccccc3)ccc12; experiment: as above; assay type: biochemical, human; conditions: other: 100 mM K+ phosphate buffer, pH 7.5
Protocol: as §1, §2

[9] = substrate: CCCCCCCCOCOc1ccc2nc3ccc(=O)cc-3oc2c1; experiment: Kinetic properties of fluorogenic substrates with CYP 2C9; assay type: biochemical, human; conditions: other: — = too low to quantify
[10] = substrate: COCOc1ccc2cc(C#N)c(=O)oc2c1; experiment: as above; assay type: biochemical, human; conditions: other: — = too low to quantify
[11] = substrate: COc1ccc(COc2ccc3c(C(F)(F)F)cc(=O)oc3c2)cc1; experiment: as above; assay type: biochemical, human; conditions: other: — = too low to quantify
[12] = substrate: COc1ccc(COc2ccc3nc4ccc(=O)cc-4oc3c2)cc1; experiment: as above; assay type: biochemical, human; conditions: other: — = too low to quantify
[13] = substrate: COc1ccc2cc(C#N)c(=O)oc2c1; experiment: as above; assay type: biochemical, human; conditions: other: — = too low to quantify
[14] = substrate: N#Cc1cc2ccc(OCOCc3ccccc3)cc2oc1=O; experiment: as above; assay type: biochemical, human; conditions: other: — = too low to quantify
[15] = substrate: O=C(O)c1ccccc1-c1c2ccc(=O)cc-2oc2cc(OCOCc3ccccc3)ccc12; experiment: Kinetic properties of substrate BOMF with CYP 2C9 (Tris-HCl buffer); assay type: biochemical, human; conditions: other: 200 mM Tris-HCl buffer, pH 7.5
[16] = turnover rate at 1.25 uM substrate, — = too low to quantify
[17] = turnover rate at 10 uM substrate, — = too low to quantify

T1 sequence (P08684 whole entry): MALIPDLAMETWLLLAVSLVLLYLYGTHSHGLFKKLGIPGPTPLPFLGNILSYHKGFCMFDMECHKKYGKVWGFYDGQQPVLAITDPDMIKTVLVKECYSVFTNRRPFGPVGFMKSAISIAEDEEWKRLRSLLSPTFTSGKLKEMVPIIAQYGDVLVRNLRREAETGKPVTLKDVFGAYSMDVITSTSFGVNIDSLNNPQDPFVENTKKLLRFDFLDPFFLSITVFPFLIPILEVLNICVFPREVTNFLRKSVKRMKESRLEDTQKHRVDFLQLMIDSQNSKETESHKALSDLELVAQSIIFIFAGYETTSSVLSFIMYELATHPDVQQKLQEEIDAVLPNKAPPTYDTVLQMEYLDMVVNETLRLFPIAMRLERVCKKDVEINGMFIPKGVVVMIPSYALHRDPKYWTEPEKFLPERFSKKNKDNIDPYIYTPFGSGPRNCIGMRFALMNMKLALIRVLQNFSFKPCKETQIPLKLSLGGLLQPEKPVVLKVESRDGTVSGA
Chain of CYP2D6 (P10635 whole entry): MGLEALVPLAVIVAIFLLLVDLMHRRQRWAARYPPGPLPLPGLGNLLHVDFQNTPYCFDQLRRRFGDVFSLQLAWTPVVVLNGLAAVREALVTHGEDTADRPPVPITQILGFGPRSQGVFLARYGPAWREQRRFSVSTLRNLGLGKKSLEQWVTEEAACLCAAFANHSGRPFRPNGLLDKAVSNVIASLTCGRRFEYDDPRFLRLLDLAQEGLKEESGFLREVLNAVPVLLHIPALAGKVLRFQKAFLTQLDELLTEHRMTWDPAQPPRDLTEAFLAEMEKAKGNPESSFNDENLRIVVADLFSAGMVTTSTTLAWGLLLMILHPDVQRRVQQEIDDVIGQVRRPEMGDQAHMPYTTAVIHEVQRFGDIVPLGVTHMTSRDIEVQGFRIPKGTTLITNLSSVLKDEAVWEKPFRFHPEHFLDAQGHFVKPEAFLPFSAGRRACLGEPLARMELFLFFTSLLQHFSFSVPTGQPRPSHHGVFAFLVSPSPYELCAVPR

NC1CCCCC1NC(=O)c1cc2ccc(OCOCc3ccccc3)cc2oc1=O (racemic) [BOM-09B]
conversion rate (CYP3A4 [1]; 20 μM substrate, 37° C., 2 pmol enzyme per well): 0.75 pmol substrate/pmol enzyme·min | rate of conversion compared with BOMCC (CYP3A4 [1]; identical conditions): half that of BOMCC

CC[C@H]1[C@@H]2C[C@H]3[C@@H]4N(C)c5ccccc5[C@]45C[C@@H]([C@@H]2[C@H]5O)N3[C@@H]1O [Amjaline]
Ki (CYP2D6): > 30 µM

O=C(O)c1ccccc1-c1c2ccc(=O)cc-2oc2cc(OCOCc3ccccc3)ccc12 [BOMF, Benzyloxymethylfluorescein]
type of kinetics (CYP3A4 [2]): MichaelisMenten | v (1.25 uM) (CYP3A4 [2]; turnover rate at 1.25 uM substrate, 100 mM K+ phosphate, pH 8.0): 0.53 min⁻¹ | v (10 uM) (CYP3A4 [2]; turnover rate at 10 uM substrate, 100 mM K+ phosphate, pH 8.0): 3.40 min⁻¹ | type of kinetics (CYP2C9): MichaelisMenten | v (1.25 uM) (CYP2C9; turnover rate at 1.25 uM substrate, 200 mM Tris-HCl buffer, pH 7.5): 1.28 min⁻¹ | v (10 uM) (CYP2C9; turnover rate at 10 uM substrate, 200 mM Tris-HCl buffer, pH 7.5): 2.84 min⁻¹

O=c1ccc2nc3ccc(OCc4ccccc4)cc3oc-2c1 [BR, Benzylresorufin, reference compound]
type of kinetics (CYP3A4 [3]): Michaelis-Menten | v (1.25 uM) (CYP3A4 [3]; [16]): 0.02 min⁻¹ | v (10 uM) (CYP3A4 [3]; [17]): 0.08 min⁻¹ | type of kinetics (CYP 2B6): notMichaelis-Menten | v (1.25 uM) (CYP 2B6; [16]): 0.42 min⁻¹ | v (10 uM) (CYP 2B6; [17]): 0.42 min⁻¹ | turnover rate (kcat) (CYP3A4 [4]): 0.00167 s⁻¹ | Km (CYP3A4 [4]; human, CYP 3A4 enzyme): 5.3 µM

CN(C)CCC(c1ccc(Cl)cc1)c1ccccn1 (stereo not drawn) [Chlorpheniramine]
Ki (CYP2D6): 2.5 µM

COc1cccc2c1C(=O)c1c(O)c3c(c(O)c1C2=O)C[C@@](O)(C(=O)CO)C[C@@H]3O[C@H]1C[C@H](N)[C@H](O)[C@H](C)O1 [Doxorubicin]
Ki (CYP2D6): 8 µM | metabolism-dependent inhibitory activity against the CYP3A4 isozyme (CYP3A4 [5]): at least partial metabolism-dependent inhibitory activity | inhibition at 20 min, 10 µM (CYP3A4 [6]; substrate BOMCC): 81% | inhibition at 40 min, 10 µM (CYP3A4 [6]; substrate BOMCC): 79% | inhibition at 20 min, 10 µM (CYP3A4 [6]; substrate BOMR): 29% | inhibition at 40 min, 10 µM (CYP3A4 [6]; substrate BOMR): 72% | inhibition at 20 min, 10 µM (CYP3A4 [6]; substrate DBOMF): 3% | inhibition at 40 min, 10 µM (CYP3A4 [6]; substrate DBOMF): 33%

B1: CYP 2C8 (Homo sapiens) (protein)
chain: MEPFVVLVLCLSFMLLFSLWRQSCRRRKLPPGPTPLPIIGNMLQIDVKDICKSFTNFSKVYGPVFTVYFGMNPIVVFHGYEAVKEALIDNGEEFSGRGNSPISQRITKGLGIISSNGKRWKEIRRFSLTTLRNFGMGKRSIEDRVQEEAHCLVEELRKTKASPCDPTFILGCAPCNVICSVVFQKRFDYKDQNFLTLMKRFNENFRILNSPWIQVCNNFPLLIDCFPGTHNKVLKNVALTRSYIREKVKEHQASLDVNNPRDFIDCFLIKMEQEKDNQKSEFNIENLVGTVADLFVAGTETTSTTLRYGLLLLLKHPEVTAKVQEEIDHVIGRHRSPCMQDRSHMPYTDAVVHEIQRYSDLVPTGVPHAVTTDTKFRNYLIPKGTTIMALLTSVLHDDKEFPNPNIFDPGHFLDKNGNFKKSDYFMPFSAGKRICAGEGLARMELFLFLTTILQNFNLKSVDDLKNLNTTAVTKGIVSLPPSYQICFIPV
Km [7]: 3.6 µM | kcat [7]: 0.035 s⁻¹ | kcat/Km [7]: 9722 M⁻¹ s⁻¹ | Km [8]: 2.0 µM | kcat [8]: 0.0067 s⁻¹ | kcat/Km [8]: 3333 M⁻¹ s⁻¹

B2: CYP 2C9 (Homo sapiens) (protein)
chain: MDSLVVLVLCLSCLLLLSLWRQSSGRGKLPPGPTPLPVIGNILQIGIKDISKSLTNLSKVYGPVFTLYFGLKPIVVLHGYEAVKEALIDLGEEFSGRGIFPLAERANRGFGIVFSNGKKWKEIRRFSLMTLRNFGMGKRSIEDRVQEEARCLVEELRKTKASPCDPTFILGCAPCNVICSIIFHKRFDYKDQQFLNLMEKLNENIKILSSPWIQICNNFSPIIDYFPGTHNKLLKNVAFMKSYILEKVKEHQESMDMNNPQDFIDCFLMKMEKEKHNQPSEFTIESLENTAVDLFGAGTETTSTTLRYALLLLLKHPEVTAKVQEEIERVIGRNRSPCMQDRSHMPYTDAVVHEVQRYIDLLPTSLPHAVTCDIKFRNYLIPKGTTILISLTSVLHDNKEFPNPEMFDPHHFLDEGGNFKKSKYFMPFSAGKRICVGEALAGMELFLFLTSILQNFNLKSLVDPKNLDTTPVVNGFASVPPFYQLCFIPV
Km [9]: 2.6 µM | kcat [9]: 0.0067 s⁻¹ | kcat/Km [9]: 2564 M⁻¹ s⁻¹ | Km [10]: 20 µM | kcat/Km [10]: 167 M⁻¹ s⁻¹ | Km [11]: 7.7 µM | kcat [11]: 0.00483 s⁻¹ | kcat/Km [11]: 628 M⁻¹ s⁻¹ | Km [12]: 0.4 µM | kcat/Km [12]: 952 M⁻¹ s⁻¹ | Km [13]: 70.9 µM | kcat [13]: 0.00667 s⁻¹ | kcat/Km [13]: 85 M⁻¹ s⁻¹ | Km [14]: 43.0 µM | kcat [14]: 0.035 s⁻¹ | kcat/Km [14]: 814 M⁻¹ s⁻¹ | Km [15]: 4.5 µM | kcat [15]: 0.075 s⁻¹ | kcat/Km [15]: 16666 M⁻¹ s⁻¹
